Results on four molecules are retold here after PMC5114727, “Biological characterization of chemically diverse compounds targeting the Plasmodium falciparum coenzyme A synthesis pathway” (Parasites & Vectors, 2016).

Values joined by “and” are separate entries in the source; they are usually repeats but may differ in a detail not shown here. Identical values can stand only once. Like-named read-outs stand apart in the source and are kept apart here.

One data set relates to MCF7 cells. As to the kind of experiment: Resazurin cytotoxicity assay, MCF7. Type of data set: cell-based, human. The note with it: highest concentration 40 μM; bound = highest concentration with < 50 % inhibition; read-out: MCF7 cytotoxicity IC50 ± SEM. From the text:
(§1) An initial indication of compound selectivity over human cells had previously been obtained through comparison of the compounds’ IC50 values against P. falciparum asexual stages and HEK293 [22]. In the present study, the selectivity investigation was extended to a small panel of human cancer cell lines, namely the estrogen receptor (ER)-positive breast cancer cell line MCF7, the ER-negative MDA-MB-231, as well as the human prostate cancer line, PC-3. Additionally, the cytotoxic effects on mouse embryonic fibroblast cell line 3T3, which serves as the host cell for T. cruzi in our image-based amastigote assay, were investigated.
(§2) Cytotoxicity of the compounds was assessed against a panel of human cancer cell lines, namely the estrogen receptor (ER)-positive breast cancer cell line MCF7, the ER-negative MDA-MB-231 and the prostate cancer line PC-3. All the cell lines were purchased from ATCC and maintained as previously described. Two biological replicates consisting of two technical replicates each were performed to generate concentration response curves (CRC) with a final highest concentration of 40 μM. A resazurin-based assay was utilized to determine cell viability as described earlier. Additionally, the cytotoxic effects on the mouse embryonic fibroblast cell line 3T3 were assessed as part of the Trypanosoma cruzi amastigote image-based assay as outlined in [35].
In general terms: Alamar Blue is a resazurin reagent that responds to reducing activity.

In data set [1] the test system is panel of human cancer cell lines (MCF7, MDA-MB-231, PC-3). As to the kind of experiment: Cytotoxicity across the panel of cell lines. The note with it: for cytotoxicity against any of the cell lines investigated (in words): up to the highest tested concentration of 40 μM; for IC50: MCF7, MDA-MB-231, PC-3, read-out: IC50 range against the cancer cell lines. In kind it is cell-based.
Excerpt: as §1, §2

Another data set relates to T. cruzi amastigotes. Put plainly: T. cruzi amastigote image-based assay in 3T3 host cells. Type of data set: cell-based, Trypanosoma cruzi. The note with it: for T. cruzi amastigote percent inhibition at the highest concentration tested: 40 µM per footnote, given if an IC50 could not be calculated; for IC50: in 3T3 host cells, read-out: T. cruzi amastigote IC50 ± SEM. The protocol:
The next step taken was to determine whether the activity of the compounds was confined to P. falciparum, or whether it extended to other protozoan parasites. Compound activity against two members of another clinically important group of parasites, the kinetoplastids T. cruzi and T. b. brucei was determined. The sensitive high content imaging assay used to determine compound activity against T. cruzi assesses the intracellular amastigote life form of the parasite in the 3T3 host cell. It is important to simultaneously assess compound activity against 3T3 cells to determine potential cytotoxicity against the host cell line, since this could result in a false positive outcome. The T. b. brucei assay employs the REDOX indicator Alamar Blue to assess viability, which was developed into a 384-well assay format.
Compound activity against T. cruzi amastigotes was assessed in an image-based assay in single point concentration-response and three biological replicates, at a final highest compound concentration of […], as previously described.

A further data set has as its system T. cruzi trypomastigotes. As to the kind of experiment: T. cruzi trypomastigote PrestoBlue assay. To be noted: for IC50: highest concentration 40 μM, read-out: T. cruzi trypomastigote IC50 ± SEM. Type of data set: cell-based, Trypanosoma cruzi. The protocol: Compound activity against T. cruzi trypomastigotes was assessed in two independent experiments, without technical repeats, at a final highest compound concentration of 40 μM in concentration-response PrestoBlue assay, as previously described.

Another data set relates to 3T3 cells. As to the kind of experiment: 3T3 host cell cytotoxicity (part of T. cruzi amastigote image-based assay). To be noted: bound = highest concentration with < 50 % inhibition; read-out: 3T3 cytotoxicity IC50 ± SEM. Also noted: species or system mouse.
Excerpt: as §1, §2

Data set [2] has as its target early stage gametocytes (stage I to IIb/III) of P. falciparum line NF54^Pfs16. As to the kind of experiment: Gametocyte luciferase assay, early stage. In kind it is cell-based, Plasmodium falciparum. From the text:
To investigate a potential role of CoA biosynthesis for host to vector transmission of the malaria parasite, we investigated the activity of our compounds on P. falciparum gametocytes, the sexual stages of P. falciparum, essential for malaria transmission. […] Parasite stage-specificity and gametocytocidal activity of the compounds was therefore investigated, utilizing a luciferase-based approach on early stage (development from stage I to IIb/III [30]) and late stage (IV to V [51]) gametocytes.
Induction of P. falciparum gametocyte differentiation and gametocyte culturing were performed as previously described. Compound activity against early stage gametocytes (covering the development from stage I to IIb/III) and late stage gametocytes (stage IV to V) of the recombinant P. falciparum line NF54^Pfs16 was assessed in concentration-response assays, in two experimental replicates consisting of two technical repeats each, at a highest concentration of 40 μM, as described earlier.

Data set [3] deals with P. falciparum asexual blood stage. The note with it: as previously reported; read-out: Asexual P. falciparum IC50 ± SEM; cited from earlier work.
The test system of another data set is PC-3 cells. As to the kind of experiment: Resazurin cytotoxicity assay, PC-3. To be noted: highest concentration 40 μM; bound = highest concentration with < 50 % inhibition; read-out: PC-3 cytotoxicity IC50 ± SEM. Type of data set: cell-based, human.
Excerpt: as §1, §2

A further data set has as its system MDA-MB-231 cells. Put plainly: Resazurin cytotoxicity assay, MDA-MB-231. Type of data set: cell-based, human. To be noted: highest concentration 40 μM; bound = highest concentration with < 50 % inhibition; read-out: MDA-MB-231 cytotoxicity IC50 ± SEM.
Excerpt: as §1, §2

The subject of data set [4] is P. falciparum asexual blood stages (PfAS). Put plainly: Chemical rescue with CoA pathway intermediates, asexual stages. To be noted: inhibitor at IC80; for Percent rescue ± SEM by pantethine, PfAS: pantethine 125 μM; for Percent rescue ± SEM by pantothenate, PfAS: pantothenate 300 μM; for Percent rescue ± SEM by CoA, PfAS: CoA 0.8 mM; for Percent rescue ± SEM by dephospho CoA, PfAS: dP-CoA 0.8 mM. In kind it is cell-based, Plasmodium falciparum. The procedure:
Pantothenate is the first substrate of the pathway (Fig. 1) and its addition was intended to rescue the action of possible competitive inhibitors of the first enzyme, PanK. […] It is not known, whether P. falciparum is capable of pantetheine phosphorylation for utilization in CoA synthesis. […] Finally, the rescue ability of dP-CoA, the final substrate of CoA synthesis, was tested. […] Inhibitors competing with dP-CoA for DPCK binding were expected to be displaced, thereby rescuing parasite survival, by dP-CoA supplementation in a concentration dependent manner.
An imaging based assay was utilised to assess the chemical rescue on asexual stages of P. falciparum as described previously. All the pathway intermediates were purchased from Sigma. CoA and dP-CoA were dissolved in sterile distilled water to obtain a 20 mM stock solution, which was then aliquoted and stored at -20 °C until use. […] Each pathway intermediate was tested on the parasites at a range of concentrations to assess potential toxicity. […] On early stage P. falciparum gametocytes the same concentrations as for CoA were tested for dP-CoA; against asexual blood stage P. falciparum, late stage gametocytes and Trypanosoma b. brucei five dP-CoA concentrations were tested (2 mM, 1.5 mM, 1 mM, 0.75 mM and 0.5 mM).
The same concentration ranges of the CoA pathway intermediates were supplemented to parasites treated with the experimental compounds. The inhibitors were used at their respective final assay concentration of IC80 (as determined previously in the corresponding P. falciparum development stage or T. b. brucei assay). […] The negative control used in each assay was 0.4% DMSO, whilst the positive control was 2 μM artemisinin for asexual P. falciparum blood stages and 5 μM puromycin for all gametocyte stages and T. b. brucei. The percentage growth of the respective parasites following compound treatment was determined using Microsoft ® Excel 2010, and compared with their controls. All rescue assays were performed as two independent experiments each in duplicate point.

Setting [5] is: read-out: Early stage gametocyte IC50.
Setting [6] is: highest concentration 40 μM, read-out: Early stage gametocyte IC50 ± SEM.

As to `Cc1csc(Sc2ncnc3sccc23)n1` [Amb180780], the IC50 in the data set on MCF7 cells was greater than 40 µM; in the data set on 3T3 cells, greater than 40 µM; in data set [2] (setting [5]), 60 nM; in data set [3], 120 ± 20 nM; in the data set with PC-3 cells, greater than 40 µM; in the data set on MDA-MB-231 cells, greater than 40 µM. The “cytotoxicity against any of the cell lines investigated (in words)” value in data set [1] is on record as “no or only negligible cytotoxicity”. Further, in the data set with T. cruzi amastigotes, the “T. cruzi amastigote percent inhibition at the highest concentration tested” value is 21%. The “T. cruzi trypomastigote percent inhibition at the highest concentration tested” value with T. cruzi trypomastigotes (40 µM, given if an IC50 could not be calculated) was 100%. Moreover, the “Percent rescue ± SEM by pantethine, PfAS” value in [4] was 76.2 ± 7.7% and 76 ± 8%. In addition, the “Percent rescue ± SEM by pantothenate, PfAS” value in data set [4] was “No and not by pantothenate”.
As to `CC(=O)c1ccc2c3c(onc13)-c1ccccc1C2=O` [Amb3377585], the IC50 with MCF7 cells is 9.1 ± 0.62 µM; in data set [1], 5 to 9 µM; in the data set with T. cruzi amastigotes, 13.3 ± 2.35 µM; with T. cruzi trypomastigotes, 740 nM and 744 nM; in data set [2] (setting [6]), 250 ± 10 nM; in data set [3], 150 ± 10 nM. Besides, the IC50 with PC-3 cells came to 5.5 ± 0.64 µM; in the data set with MDA-MB-231 cells it was 5.6 ± 0.33 µM. In addition, in data set [4], the “Percent rescue ± SEM by CoA, PfAS” value came out at 89.3 ± 2.6%. Moreover, in [4], the “Percent rescue ± SEM by dephospho CoA, PfAS” value amounted to 38.7 ± 4.7%. In addition, the “Percent rescue ± SEM by pantethine, PfAS” value in [4] is on record as “No”. Further, in data set [4], the “Percent rescue ± SEM by pantothenate, PfAS” value is reported as “No”.
Consider `CC(=O)C1=C(c2ccccc2)C(=O)c2ccccc2C1=O` [Amb4317088], for which the half-inhibitory concentration (IC50) is 4.6 ± 0.16 µM with MCF7 cells; 0.87 to 4.6 µM in data set [1]; 4.3 ± 0.27 µM in the data set on T. cruzi amastigotes; 390 nM and 392 nM in the data set on T. cruzi trypomastigotes; 8.6 ± 0.96 µM in the data set on 3T3 cells; 2880 ± 180 nM in [2] (setting [6]). The IC50 in [3] was 1230 ± 60 nM; with PC-3 cells, 1.4 ± 0.06 µM; in the data set on MDA-MB-231 cells it was 0.87 ± 0.04 µM. For the same molecule, the “Percent rescue ± SEM by CoA, PfAS” value in data set [4] is 84.5 ± 7.7%. For the same molecule, the “Percent rescue ± SEM by dephospho CoA, PfAS” value in [4] was found to be 77.6 ± 5.5%. Moreover, the “Percent rescue ± SEM by pantethine, PfAS” value in data set [4] is “No”. Further, in data set [4], the “Percent rescue ± SEM by pantothenate, PfAS” value is reported as “No”.
For `CC1=CC(=O)C(C(C)C)=C/C1=N/OS(=O)(=O)c1ccccc1` [STK 740987], the IC50 in the data set on MCF7 cells is greater than 40 µM; with T. cruzi trypomastigotes, 680 nM and 682 nM; in the data set on 3T3 cells, greater than 20 µM; in data set [2] (setting [5]), 430 nM; in data set [3] it was 380 ± 60 nM; with PC-3 cells, greater than 20 µM. Besides, the IC50 with MDA-MB-231 cells was greater than 40 µM. In addition, in data set [1], the “cytotoxicity against any of the cell lines investigated (in words)” value is “no or only negligible cytotoxicity”. Also, the “T. cruzi amastigote percent inhibition at the highest concentration tested” value with T. cruzi amastigotes is given as 54%. In data set [4], the “Percent rescue ± SEM by CoA, PfAS” value stood at 103.9 ± 3.4%. In addition, the “Percent rescue ± SEM by dephospho CoA, PfAS” value in data set [4] is on record as 88.9 ± 6.7%. The “Percent rescue ± SEM by pantethine, PfAS” value in data set [4] is “No”. Further, the “Percent rescue ± SEM by pantothenate, PfAS” value in data set [4] was “No”.

By IC50 is commonly meant the concentration that gives 50% inhibition.
